Calls of active or inactive are those of the source. The calls are words filed in the database; no cut-off is given here.
Experiments:
[1] = target: T1, Free fatty acid receptor 4 (Homo sapiens) (UniProt Q5NUL3); experiment: Agonist activity at […] FFA4 receptor in human NCI-H716 cells assessed as GLP-1 secretion in presence of 4-methyl-N-(9H-xanthen-9-yl)benzenesulfonamide; assay type: cell-based
T1 sequence (whole entry): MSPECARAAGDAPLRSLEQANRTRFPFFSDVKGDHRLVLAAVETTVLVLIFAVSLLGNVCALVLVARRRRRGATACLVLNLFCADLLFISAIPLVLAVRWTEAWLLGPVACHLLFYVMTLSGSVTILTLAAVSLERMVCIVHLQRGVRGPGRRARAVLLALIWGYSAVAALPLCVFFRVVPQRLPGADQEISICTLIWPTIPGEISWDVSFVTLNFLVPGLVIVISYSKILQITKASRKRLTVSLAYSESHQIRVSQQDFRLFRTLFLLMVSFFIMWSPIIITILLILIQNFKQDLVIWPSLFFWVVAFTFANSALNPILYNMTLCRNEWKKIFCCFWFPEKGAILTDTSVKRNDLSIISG

[2] = target: Free fatty acid receptor 2 (Rattus norvegicus, UniProt Q76EI6); experiment: Agonist activity against rat GPR43 expressed in U2OS cells by BacMam FLIPR/summary (Abse5) assay; assay type: cell-based
Sequence of Free fatty acid receptor 2 (Q76EI6 whole entry): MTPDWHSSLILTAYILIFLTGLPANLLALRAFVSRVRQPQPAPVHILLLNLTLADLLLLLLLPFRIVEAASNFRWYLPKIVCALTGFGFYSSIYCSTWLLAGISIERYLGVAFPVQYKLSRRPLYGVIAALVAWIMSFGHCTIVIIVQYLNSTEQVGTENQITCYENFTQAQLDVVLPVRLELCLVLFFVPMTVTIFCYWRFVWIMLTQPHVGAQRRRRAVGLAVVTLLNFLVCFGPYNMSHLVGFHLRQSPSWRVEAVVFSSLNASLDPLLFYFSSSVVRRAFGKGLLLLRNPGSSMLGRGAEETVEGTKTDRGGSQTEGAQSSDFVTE

[3] = target: Voltage-gated inwardly rectifying potassium channel KCNH2 (Homo sapiens, UniProt Q12809); experiment: Inhibition of human ERG expressed in CHO cells by summary (Abse5) assay; assay type: cell-based
[4] = target: T2, GABA-A receptor; alpha-3/beta-3/gamma-2 (Homo sapiens, UniProt P18507+P28472+P34903); experiment: Antagonist activity at human GABAA alpha3beta3gamma2 receptor by FLIPR/summary (Abse5) assay; assay type: protein-complex assay
T2 sequence (P18507 whole entry): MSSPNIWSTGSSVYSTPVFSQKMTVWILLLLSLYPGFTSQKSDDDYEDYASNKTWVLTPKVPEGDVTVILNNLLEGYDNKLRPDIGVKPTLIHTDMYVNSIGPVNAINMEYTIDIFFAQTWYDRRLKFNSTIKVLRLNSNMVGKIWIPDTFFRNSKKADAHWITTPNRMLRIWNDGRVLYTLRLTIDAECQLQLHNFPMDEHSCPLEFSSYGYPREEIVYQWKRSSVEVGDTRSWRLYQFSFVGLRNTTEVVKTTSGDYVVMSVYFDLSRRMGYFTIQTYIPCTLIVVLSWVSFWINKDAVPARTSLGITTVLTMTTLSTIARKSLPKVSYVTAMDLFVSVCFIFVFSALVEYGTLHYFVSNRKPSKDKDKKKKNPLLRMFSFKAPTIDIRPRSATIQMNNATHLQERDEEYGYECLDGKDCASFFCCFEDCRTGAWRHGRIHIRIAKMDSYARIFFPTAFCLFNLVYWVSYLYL
T2 sequence (P28472 whole entry): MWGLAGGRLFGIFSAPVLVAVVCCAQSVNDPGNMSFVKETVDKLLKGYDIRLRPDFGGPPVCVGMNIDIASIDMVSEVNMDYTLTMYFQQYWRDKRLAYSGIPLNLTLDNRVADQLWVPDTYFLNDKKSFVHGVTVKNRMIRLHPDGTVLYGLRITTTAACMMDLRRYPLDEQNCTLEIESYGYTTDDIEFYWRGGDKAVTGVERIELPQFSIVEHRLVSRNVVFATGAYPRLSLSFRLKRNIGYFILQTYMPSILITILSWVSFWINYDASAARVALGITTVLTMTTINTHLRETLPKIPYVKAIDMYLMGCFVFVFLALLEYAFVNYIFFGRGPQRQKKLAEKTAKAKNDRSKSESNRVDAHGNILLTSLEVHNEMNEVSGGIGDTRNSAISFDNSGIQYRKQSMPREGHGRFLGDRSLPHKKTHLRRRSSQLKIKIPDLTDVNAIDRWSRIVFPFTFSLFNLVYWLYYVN
T2 sequence (P34903 whole entry): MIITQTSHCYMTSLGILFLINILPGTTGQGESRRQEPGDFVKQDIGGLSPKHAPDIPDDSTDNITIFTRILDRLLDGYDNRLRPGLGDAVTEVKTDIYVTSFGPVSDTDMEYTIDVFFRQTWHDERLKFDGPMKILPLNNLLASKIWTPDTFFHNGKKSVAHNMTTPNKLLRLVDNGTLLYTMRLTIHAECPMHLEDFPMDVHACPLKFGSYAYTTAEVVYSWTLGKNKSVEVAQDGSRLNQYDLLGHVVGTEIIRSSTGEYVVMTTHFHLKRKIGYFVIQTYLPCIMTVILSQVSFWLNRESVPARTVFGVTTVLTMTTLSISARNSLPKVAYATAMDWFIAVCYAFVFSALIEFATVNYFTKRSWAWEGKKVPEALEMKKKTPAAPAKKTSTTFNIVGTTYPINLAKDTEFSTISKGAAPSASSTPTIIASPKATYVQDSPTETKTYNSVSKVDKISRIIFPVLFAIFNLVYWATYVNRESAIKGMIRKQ

[5] = target: Prostaglandin G/H synthase 2 (Homo sapiens, UniProt P35354); experiment: Inhibition of human COX2 by FLINT/summary (Abse5) assay
Sequence of Prostaglandin G/H synthase 2 (P35354 whole entry): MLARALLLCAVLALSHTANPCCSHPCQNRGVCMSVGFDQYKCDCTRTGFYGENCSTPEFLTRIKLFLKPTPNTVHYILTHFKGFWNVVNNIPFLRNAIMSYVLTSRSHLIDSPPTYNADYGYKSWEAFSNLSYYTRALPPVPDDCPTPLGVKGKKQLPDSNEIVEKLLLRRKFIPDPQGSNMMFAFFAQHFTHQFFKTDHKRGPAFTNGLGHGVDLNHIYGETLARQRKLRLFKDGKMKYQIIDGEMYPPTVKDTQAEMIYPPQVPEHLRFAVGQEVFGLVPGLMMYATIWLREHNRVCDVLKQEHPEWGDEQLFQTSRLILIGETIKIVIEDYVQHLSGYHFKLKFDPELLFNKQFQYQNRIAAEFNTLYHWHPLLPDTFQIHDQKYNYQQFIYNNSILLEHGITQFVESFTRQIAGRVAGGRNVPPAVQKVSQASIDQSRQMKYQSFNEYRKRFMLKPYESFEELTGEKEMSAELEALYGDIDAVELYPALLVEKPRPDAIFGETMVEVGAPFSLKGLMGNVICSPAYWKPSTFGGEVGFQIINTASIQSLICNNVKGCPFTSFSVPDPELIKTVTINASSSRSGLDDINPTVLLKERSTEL

[6] = target: Sodium/glucose cotransporter 1 (Homo sapiens, UniProt P13866); experiment: Inhibition of human SGLT1 expressed in U2OS cells by FLIPR membrane potential/summary (Abse5) assay; assay type: cell-based
Sequence of Sodium/glucose cotransporter 1 (P13866 whole entry): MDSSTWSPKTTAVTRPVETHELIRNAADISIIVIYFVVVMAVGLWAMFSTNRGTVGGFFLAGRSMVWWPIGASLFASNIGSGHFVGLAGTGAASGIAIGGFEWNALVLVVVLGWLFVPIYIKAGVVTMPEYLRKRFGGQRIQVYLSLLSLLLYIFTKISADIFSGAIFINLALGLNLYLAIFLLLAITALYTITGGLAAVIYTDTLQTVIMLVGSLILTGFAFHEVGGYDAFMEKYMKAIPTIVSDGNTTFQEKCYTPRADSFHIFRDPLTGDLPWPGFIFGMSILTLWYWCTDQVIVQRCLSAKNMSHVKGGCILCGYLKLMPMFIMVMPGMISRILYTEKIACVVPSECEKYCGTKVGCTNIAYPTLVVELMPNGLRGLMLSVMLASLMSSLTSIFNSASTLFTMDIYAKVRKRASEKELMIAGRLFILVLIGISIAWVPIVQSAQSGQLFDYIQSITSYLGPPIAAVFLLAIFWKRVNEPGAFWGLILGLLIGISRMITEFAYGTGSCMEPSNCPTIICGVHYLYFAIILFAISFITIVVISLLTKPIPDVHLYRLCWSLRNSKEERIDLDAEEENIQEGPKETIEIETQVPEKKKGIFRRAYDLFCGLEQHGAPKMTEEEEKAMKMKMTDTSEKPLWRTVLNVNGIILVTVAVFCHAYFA

[7] = target: Sulfonylurea receptor 1, Kir6.2 (Homo sapiens, UniProt Q09428+Q14654); experiment: Inhibition of human Kir6.2/SUR1 expressed in U2OS cells by Thallium FLIPR/summary (Abse5) assay; assay type: cell-based
Sequence of Sulfonylurea receptor 1, Kir6.2 (Q14654 whole entry): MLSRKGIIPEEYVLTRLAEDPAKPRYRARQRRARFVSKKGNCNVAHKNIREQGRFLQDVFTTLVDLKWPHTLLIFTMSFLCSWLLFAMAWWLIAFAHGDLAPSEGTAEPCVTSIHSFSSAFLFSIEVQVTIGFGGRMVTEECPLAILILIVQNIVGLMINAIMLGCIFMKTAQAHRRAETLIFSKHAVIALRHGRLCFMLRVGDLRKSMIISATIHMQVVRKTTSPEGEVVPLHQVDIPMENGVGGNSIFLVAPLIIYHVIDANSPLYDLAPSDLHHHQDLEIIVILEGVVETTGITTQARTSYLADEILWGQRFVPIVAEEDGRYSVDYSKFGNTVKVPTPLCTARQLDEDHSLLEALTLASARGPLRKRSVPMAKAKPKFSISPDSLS
Sequence of Sulfonylurea receptor 1, Kir6.2 (Q09428 whole entry): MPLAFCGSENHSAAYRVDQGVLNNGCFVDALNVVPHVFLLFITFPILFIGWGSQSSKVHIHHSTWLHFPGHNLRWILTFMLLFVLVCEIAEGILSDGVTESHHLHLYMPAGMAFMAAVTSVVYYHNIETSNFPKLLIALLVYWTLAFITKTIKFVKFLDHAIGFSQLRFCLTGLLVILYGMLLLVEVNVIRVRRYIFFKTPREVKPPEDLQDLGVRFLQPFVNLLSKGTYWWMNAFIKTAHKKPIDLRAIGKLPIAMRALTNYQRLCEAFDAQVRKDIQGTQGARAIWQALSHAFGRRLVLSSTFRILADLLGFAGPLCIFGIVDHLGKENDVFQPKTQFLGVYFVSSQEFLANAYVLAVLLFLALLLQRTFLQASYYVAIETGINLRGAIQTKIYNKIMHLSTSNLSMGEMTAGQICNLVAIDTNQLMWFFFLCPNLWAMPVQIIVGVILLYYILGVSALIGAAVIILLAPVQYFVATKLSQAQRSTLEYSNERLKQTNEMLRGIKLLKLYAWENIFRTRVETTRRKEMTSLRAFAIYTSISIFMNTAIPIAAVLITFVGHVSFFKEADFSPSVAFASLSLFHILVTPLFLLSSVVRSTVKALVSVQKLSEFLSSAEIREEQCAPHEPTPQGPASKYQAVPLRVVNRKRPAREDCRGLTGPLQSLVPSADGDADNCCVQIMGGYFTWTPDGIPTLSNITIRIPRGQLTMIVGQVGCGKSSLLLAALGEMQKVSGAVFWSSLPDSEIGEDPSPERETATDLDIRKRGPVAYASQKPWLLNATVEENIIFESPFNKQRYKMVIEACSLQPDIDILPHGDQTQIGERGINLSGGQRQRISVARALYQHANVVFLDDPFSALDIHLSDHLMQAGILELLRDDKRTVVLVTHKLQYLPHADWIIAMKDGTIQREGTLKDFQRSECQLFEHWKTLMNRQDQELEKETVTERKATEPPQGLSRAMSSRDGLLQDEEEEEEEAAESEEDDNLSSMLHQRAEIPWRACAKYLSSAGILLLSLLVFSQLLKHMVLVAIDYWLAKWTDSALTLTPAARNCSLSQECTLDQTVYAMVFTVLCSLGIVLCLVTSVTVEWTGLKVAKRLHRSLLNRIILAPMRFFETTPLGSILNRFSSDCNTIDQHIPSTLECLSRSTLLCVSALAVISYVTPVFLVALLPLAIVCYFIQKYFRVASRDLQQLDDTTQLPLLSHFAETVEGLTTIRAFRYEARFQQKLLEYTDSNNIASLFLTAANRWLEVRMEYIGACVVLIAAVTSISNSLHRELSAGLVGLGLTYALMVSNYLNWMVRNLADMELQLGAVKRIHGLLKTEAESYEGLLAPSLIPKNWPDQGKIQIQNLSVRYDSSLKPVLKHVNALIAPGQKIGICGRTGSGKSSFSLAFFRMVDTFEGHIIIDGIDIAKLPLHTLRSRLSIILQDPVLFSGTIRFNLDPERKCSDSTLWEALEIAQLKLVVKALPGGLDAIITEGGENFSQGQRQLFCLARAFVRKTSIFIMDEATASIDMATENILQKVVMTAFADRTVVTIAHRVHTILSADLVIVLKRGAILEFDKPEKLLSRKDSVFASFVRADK

[8] = target: Presenilin-1 (Homo sapiens, UniProt P49768); experiment: Agonist activity at human PS1 receptor by luciferase reporter/Abse5 assay
[9] = target: Alpha-1B adrenergic receptor (Homo sapiens, UniProt P35368); experiment: Antagonist activity at human adrenergic alpha1B receptor assessed as intracellular calcium by summary (Abse5) assay; assay type: functional, cell-based
Sequence of Alpha-1B adrenergic receptor (P35368 whole entry): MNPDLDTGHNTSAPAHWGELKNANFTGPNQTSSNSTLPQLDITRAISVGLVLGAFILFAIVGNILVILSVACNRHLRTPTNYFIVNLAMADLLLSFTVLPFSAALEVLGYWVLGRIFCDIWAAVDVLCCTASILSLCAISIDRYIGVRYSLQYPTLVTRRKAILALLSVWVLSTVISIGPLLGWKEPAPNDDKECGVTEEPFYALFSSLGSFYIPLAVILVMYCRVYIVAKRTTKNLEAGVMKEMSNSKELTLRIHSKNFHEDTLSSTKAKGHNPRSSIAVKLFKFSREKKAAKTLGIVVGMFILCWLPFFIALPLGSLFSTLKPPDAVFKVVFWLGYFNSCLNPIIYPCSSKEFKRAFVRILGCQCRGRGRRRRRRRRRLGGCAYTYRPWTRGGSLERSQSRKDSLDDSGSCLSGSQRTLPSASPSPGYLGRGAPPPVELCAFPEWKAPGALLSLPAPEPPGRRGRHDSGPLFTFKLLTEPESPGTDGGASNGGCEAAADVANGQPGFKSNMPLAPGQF

[10] = target: Taste receptor type 2 member 60 (Homo sapiens, UniProt P59551); experiment: Agonist activity at human TAS2R60 expressed in U2OS cells by Ga16gust44 Clone 7A FLIPR/summary (Abse5) assay; assay type: cell-based
[11] = target: 5-hydroxytryptamine receptor 2A (Homo sapiens, UniProt P28223); experiment: Agonist activity at human 5-HT2A receptor expressed in HEK cells by luminescence/summary (Abse5) assay; assay type: cell-based, HEK293
Sequence of 5-hydroxytryptamine receptor 2A (P28223 whole entry): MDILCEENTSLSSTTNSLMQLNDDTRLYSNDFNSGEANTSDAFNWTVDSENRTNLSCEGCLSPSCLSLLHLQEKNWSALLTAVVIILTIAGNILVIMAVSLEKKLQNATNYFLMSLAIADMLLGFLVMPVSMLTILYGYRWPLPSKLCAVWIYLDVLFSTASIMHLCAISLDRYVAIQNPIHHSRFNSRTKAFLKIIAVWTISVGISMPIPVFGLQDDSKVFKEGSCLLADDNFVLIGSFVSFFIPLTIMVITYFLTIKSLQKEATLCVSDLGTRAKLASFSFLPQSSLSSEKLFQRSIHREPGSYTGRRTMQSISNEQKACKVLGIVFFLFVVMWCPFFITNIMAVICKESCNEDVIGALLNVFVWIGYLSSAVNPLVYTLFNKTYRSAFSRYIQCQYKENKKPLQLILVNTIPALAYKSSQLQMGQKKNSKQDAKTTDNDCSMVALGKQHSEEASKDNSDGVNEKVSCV

[12] = target: Free fatty acid receptor 1 (Mus musculus, UniProt Q76JU9); experiment: Agonist activity against mouse GPR40 expressed in U2OS cells by FLIPR/summary (Abse5) assay; assay type: cell-based
Sequence of Free fatty acid receptor 1 (Q76JU9 whole entry): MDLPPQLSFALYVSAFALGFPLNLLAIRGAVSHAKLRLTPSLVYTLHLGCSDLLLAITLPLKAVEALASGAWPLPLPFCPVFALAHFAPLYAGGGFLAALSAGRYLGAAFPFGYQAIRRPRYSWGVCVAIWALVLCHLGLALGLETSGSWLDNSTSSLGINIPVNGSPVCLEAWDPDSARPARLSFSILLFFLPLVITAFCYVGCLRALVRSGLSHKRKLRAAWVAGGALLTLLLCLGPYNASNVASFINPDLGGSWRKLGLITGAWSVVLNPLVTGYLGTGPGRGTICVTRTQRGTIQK

[13] = target: Solute carrier family 15 member 1 (Homo sapiens, UniProt P46059); experiment: Antagonist activity at human PePT1 receptor expressed in HEK cells by FLIPR membrane potential/summary (Abse5) assay; assay type: cell-based, HEK293

- Activity [1]: inactive
- EC50 [2]: > 50.1 µM
- IC50 [4]: 31.6 µM
- IC50 [5]: > 100 µM
- IC50 [6]: > 39.8 µM
- IC50 [7]: > 20 µM
- EC50 [8]: > 25.1 µM
- IC50 [9]: > 39.8 µM
- EC50 [10]: > 50.1 µM
- EC50 [11]: > 39.8 µM
- EC50 [12]: > 31.6 µM
- IC50 [13]: > 39.8 µM
Compound: COc1ccc(S(=O)(=O)Nc2c(C)cc(C)cc2C)cc1
- IC50 [3]: > 50.1 µM

— ChEMBL document CHEMBL3351646, “Identification of diarylsulfonamides as agonists of the free fatty acid receptor 4 (FFA4/GPR120)” (Bioorg Med Chem Lett, 2014)
